# Experimental data as given in patent publication US11014934B2, “Antiseptic drug” (AO “TATKHIMFARMPREPARATY”, priority 2017, dated 2021).
# Key:
# [1] = tested on: Escherichia coli CDC F-50; assay: Disinfectant activity in contaminated metal surface test; format: cell-based; details: for time after application to effective inhibition of bacterial growth: Escherichia coli CDC F-50, 0.1% solutions
# Procedure: (§1) The preparation of the bacterial suspension was carried out similarly to the procedure for determining the disinfecting activity of compound I in suspension (see example 7). To simulate protein contamination of the metal surface, a BSA solution was added to the bacterial suspension to a final concentration of 0.4%. The surface of the metal table was drawn into squares, the number of which depended on the number of strains studied. The test surface should be clean, intact, sterile. To do this, the table was cleaned with alcohol, and then with sterile water. A microbial suspension in a volume of 0.125 ml was applied to a surface area of 5×5 cm and distributed with a sterile spatula over the entire square area. After the microbial suspension was dried, a 0.5 ml solution of compound I (miramistin and benzalkonium chloride being a control) was uniformly applied to the surface at a working concentration of 0.1 and 0.2% and distributed over the square surface with a sterile spatula, and then kept for 1, 5, and 15 minutes.
# (§2) After the end of exposure, the contaminated surface was thoroughly wiped with a sterile gauze cloth (size 5×5 cm) soaked in 1 ml of a neutralizer solution and the cloth was immersed in 10 ml of sterile physiological saline in a flask, which was shaken for 10 minutes.
# (§3) Plating was carried out as in example 7, in addition to the controls were carried out: • control of the sterility of the surface (before applying the microbial suspension, a metal table was washed off with a sterile swab, followed by plating on a nutrient medium); • control of the vitality of the microorganism (after applying microbial suspension on the metal table, it was washed off with a sterile swab with subsequent plating on the nutrient medium).
# (§4) The contamination density of 1 cm^2 of the surface and the percentage of disinfection were calculated, taking the number of colonies removed from control surfaces as 100%. The criterion for the effectiveness of surface disinfection is not less than 99.99% of the death of test microorganisms, the disinfection time is not more than 120 minutes.
# [2] = tested on: Staphylococcus aureus ATCC 209p; assay: as above; format: cell-based; details: for Inhibition rate (Mean ± SD) of Staphylococcus aureus ATCC 209p growth: 0.1% solution; for Inhibition rate (M ± SD) Staphylococcus aureus ATCC 209p: 0.2% solution; for time after application to effective inhibition of bacterial growth (99.99%): 0.1% solutions
# Procedure: as §1, §2, §3, §4
# E. coli CDC F-50 = assay: Antiseptic activity on rat skin; format: in vivo; details: E. coli CDC F-50 on rat skin; antiseptic concentration 0.2%; exposure time 5 min; n = 6
# Procedure: The study of the antiseptic activity of compound I in rats […] was carried out in accordance with [R 4.2.2643-10 Metody laboratornykh issledovaniy i ispytaniy mediko-profilakticheskikh dezinfektsionnykh sredstv dlya otsenki ikh effektivnosti i bezopasnosti: Rukovodstvo.—M: Federal'nyy tsentr gigiyeny i epidemiologii Rospotrebnadzora, 2010.—S. 615. R 4.2.2643-10 Laboratory methods for the study and testing of medical prophylactic disinfectants to assess their effectiveness and safety: Guide.—M.:: Federal Center for Hygiene and Epidemiology of Rospotrebnadzor, 2010.—P. 615]. Experiments were carried out on male Wistar rats with a body weight of 180-250 g.
# A culture of E. coli CDC F-50, grown on dense nutrient medium for (18-20) hours, was washed with sterile isotonic chloride solution, centrifuged at 5000 rpm for 5 minutes, the supernatant was drained and cells were resuspended with sterile isotonic sodium chloride solution.
# The bacterial suspension of microorganisms was brought to a turbidity of […] according to McFarland, which corresponds to a concentration of 1.5×10^7 cells/ml.
# Animals were formed in 5 groups of 6 animals each. All manipulations with animals were performed under isoflurane anesthesia (4%—induction of anesthesia (2 min, 1 l/min), 2%—basis narcosis). A portion of 5×5 cm was shaved with a hair clipper on the dorsal part of the body of the animal.
# A 0.25 ml microbial suspension containing 1×10^7 CFU of E. coli CDC F-50 was applied to the shaved portion of the rat back with a dispenser and distributed with a sterile disposable spatula over the entire square area. It was left for 2-3 minutes until dry.
# Then, a gauze cloth (5×5 cm) was applied to the skin of rats for 5 minutes. In the experimental group, the tissue was pre-wetted with 1 ml of 0.2% solution of compound I, and in the positive control groups, the tissue was dipped in 1 ml of 0.2% miramistin, benzalkonium chloride and chlorhexidine. In the negative control group, the cloth was immersed in 1 ml of sterile saline. […]
# After the time required for the cultivation of microorganisms of this species, the results were counted according to the number of colonies grown on the Petri dish. […] After counting the number of colonies grown on Petri dishes, the density of contamination per 1 cm^2 of the surface and the percentage of disinfection were calculated, taking the number of colonies removed from control surfaces and not exposed to antiseptics action as 100%. The percentage of growth inhibition of E. coli CDC F-50 was calculated by the formula: […]
# [3] = 0.1% solution, exposure 1 min, +BSA
# [4] = 0.1% solution, exposure 1 min, −BSA
# [5] = 0.1% solution, exposure 5 min, +BSA
# [6] = 0.1% solution, exposure 5 min, −BSA
# [7] = 0.1% solution, exposure 15 min, +BSA
# [8] = 0.1% solution, exposure 15 min, −BSA
# [9] = 0.2% solution, exposure 1 min, +BSA
# [10] = 0.2% solution, exposure 1 min, −BSA
# [11] = 0.2% solution, exposure 5 min, +BSA
# [12] = 0.2% solution, exposure 5 min, −BSA
# [13] = 0.2% solution, exposure 15 min, +BSA
# [14] = 0.2% solution, exposure 15 min, −BSA
# [15] = Staphylococcus aureus ATCC 209p
SMILES,"Inhibition rate (M ± SD) of Escherichia coli CDC F-50 growth [1, 3] [%]","Inhibition rate (M ± SD) of Escherichia coli CDC F-50 growth [1, 4] [%]","Inhibition rate (M ± SD) of Escherichia coli CDC F-50 growth [1, 5] [%]","Inhibition rate (M ± SD) of Escherichia coli CDC F-50 growth [1, 6] [%]","Inhibition rate (M ± SD) of Escherichia coli CDC F-50 growth [1, 7] [%]","Inhibition rate (M ± SD) of Escherichia coli CDC F-50 growth [1, 8] [%]","Inhibition rate (M ± SD) of Escherichia coli CDC F-50 growth [1, 9] [%]","Inhibition rate (M ± SD) of Escherichia coli CDC F-50 growth [1, 10] [%]","Inhibition rate (M ± SD) of Escherichia coli CDC F-50 growth [1, 11] [%]","Inhibition rate (M ± SD) of Escherichia coli CDC F-50 growth [1, 12] [%]","Inhibition rate (M ± SD) of Escherichia coli CDC F-50 growth [1, 13] [%]","Inhibition rate (M ± SD) of Escherichia coli CDC F-50 growth [1, 14] [%]",time after application to effective inhibition of bacterial growth [1] [min],"Inhibition rate (Mean ± SD) of Staphylococcus aureus ATCC 209p growth ([2]; exposure 1 min, +BSA) [%]","Inhibition rate (Mean ± SD) of Staphylococcus aureus ATCC 209p growth ([2]; exposure 1 min, −BSA) [%]","Inhibition rate (Mean ± SD) of Staphylococcus aureus ATCC 209p growth ([2]; exposure 5 min, +BSA) [%]","Inhibition rate (Mean ± SD) of Staphylococcus aureus ATCC 209p growth ([2]; exposure 5 min, −BSA) [%]","Inhibition rate (Mean ± SD) of Staphylococcus aureus ATCC 209p growth ([2]; exposure 15 min, +BSA) [%]","Inhibition rate (Mean ± SD) of Staphylococcus aureus ATCC 209p growth ([2]; exposure 15 min, −BSA) [%]","Inhibition rate (M ± SD) Staphylococcus aureus ATCC 209p ([2]; exposure 1 min, +BSA) [%]",other results
"CCCCCCCCCCCC[N+](C)(C)Cc1cnc(C[N+](C)(C)CCCCCCCCCCCC)c2c1COC(CC)O2 (stereo not shown) [Compound I, 5,8-(Bis(methylene (N, N-dimethyl-N-dodecylammonium))-2-ethyl-4H-[1,3]dioxino [4,5-c]pyridiniumdichloride]",99.92 ± 0.005,99.92 ± 0.005,99.96 ± 0.005,99.97 ± 0.005,99.99 ± 0.005,99.99 ± 0.00,99.94 ± 0.00,99.98 ± 0.005,99.99 ± 0.005,99.99 ± 0.005,100 ± 0.005,100,15,99.98 ± 0.00,99.99,99.99,99.99,99.99,99.99,99.99,"Inhibition rate (M ± SD) Staphylococcus aureus ATCC 209p ([2]; exposure 1 min, −BSA): 99.99%; Inhibition rate (M ± SD) Staphylococcus aureus ATCC 209p ([2]; exposure 5 min, +BSA): 99.99%; Inhibition rate (M ± SD) Staphylococcus aureus ATCC 209p ([2]; exposure 5 min, −BSA): 99.99%; Inhibition rate (M ± SD) Staphylococcus aureus ATCC 209p ([2]; exposure 15 min, +BSA): 99.99%; Inhibition rate (M ± SD) Staphylococcus aureus ATCC 209p ([2]; exposure 15 min, −BSA): 99.99%; time after application to effective inhibition of bacterial growth (99.99%) [2, 15]: 5 min; time to effective inhibition of bacterial growth ([2]; Staphylococcus aureus ATCC 209p, concentration 0.2%): 1 min; Growth inhibition rate (M ± SD) (E. coli CDC F-50): 97.5 ± 1.7%"
"CCCCCCCCCCCCCC(=O)NCCC[N+](C)(C)Cc1ccccc1.O.[Cl-] [Miramistin, benzyldimethyl [3-(myristoylamino)propyl]-ammonium chloride monohydrate]",99.75 ± 0.005,99.75 ± 0.00,99.97 ± 0.005,99.86 ± 0.005,99.99 ± 0.005,99.99 ± 0.005,99.83 ± 0.005,99.98 ± 0.005,99.99 ± 0.005,99.99 ± 0.005,99.99 ± 0.005,100,15,99.98 ± 0.00,99.98 ± 0.005,99.99,99.99,99.99,99.99,99.98 ± 0.00,"Inhibition rate (M ± SD) Staphylococcus aureus ATCC 209p ([2]; exposure 1 min, −BSA): 99.98 ± 0.005%; Inhibition rate (M ± SD) Staphylococcus aureus ATCC 209p ([2]; exposure 5 min, +BSA): 99.99%; Inhibition rate (M ± SD) Staphylococcus aureus ATCC 209p ([2]; exposure 5 min, −BSA): 99.99%; Inhibition rate (M ± SD) Staphylococcus aureus ATCC 209p ([2]; exposure 15 min, +BSA): 99.99%; Inhibition rate (M ± SD) Staphylococcus aureus ATCC 209p ([2]; exposure 15 min, −BSA): 99.99%; time after application to effective inhibition of bacterial growth (99.99%) [2, 15]: 5 min; Growth inhibition rate (M ± SD) (E. coli CDC F-50): 97.2 ± 1.8%"
